According to US5654427A, “Indolocarbazole derivatives to treat a pathological condition of the prostate” (Kyowa Hakko Kogyo Co., Ltd., priority 1995, dated 1997):
pIC50: −log10 of the molar value.

Experiments:
Du-Pro1 = assay: growth inhibition of Du-Pro1 prostate cancer cells (calcein fluorescence); assay type: cell-based; conditions: Homo sapiens, 72 h; 3 days incubation; read-out: Du-Pro1 IC50
Protocol: (§1) Throughout the experiment the Tsu-Pr1 and Du-Pro1 cells were maintained in RPMI 1640 medium (GIBCO) containing 10% fetal bovine serum (Hyclone), 2 mM glutamine, 100 U/ml penicillin, and 100 μg/ml streptomycin. The PC-3 cells were maintained in Ham's F12K medium (Irvine Scientific) containing 10% fetal bovine serum (Hyclone), 2 mM glutamine, 100 U/ml penicillin, and 100 μg/ml streptomycin. All cell lines were maintained at 37° C. in a humidified atmosphere containing 5% CO2. The DU-145 cells were maintained in minimal essential medium (Gibco), containing 10% fetal bovine serum (Hyclone), 2 mM glutamine, and no antibiotics.
(§2) Tests for growth inhibition by the candidate compounds were conducted by the following procedure. In each well of a 96-well plate (Falcon) were placed 2,500 cells in 0.1 ml of medium. The cultures were incubated overnight after which a 0.1 ml aliquot of culture medium was added to each well. […] Other control wells received medium without any K-252a derivative compounds. Incubation was continued for three days. On day three the number of cells in each well was measured using a calcein fluorescence assay (Bozyczko-Coyne et al. J. Neurosci. Meth. 50, 205-216 (1993)).
(§3) Calcein AM (Molecular Probes, Eugene, Oreg.), an analog of the viable dye fluorescein diacetate, is taken up by cells and cleaved intracellularly to fluorescent salts that are retained by intact membranes of viable cells. This method thus provides a reliable and quantitative measurement of cell survival. Calcein AM was diluted 2× in Dulbeccos phosphate buffered saline (D-PBS) to 2× the final assay concentration (6 μM) and 100 μl was added to culture wells containing 100 μl of medium. The plates were then incubated for 1 hour at 37° C. Cells were then washed 4 times with D-PBS to remove excess calcein not taken up by cells. The plate was read using a Millipore plate reading fluorimeter (Cytofluor 2350) at emission=485 nm and excitation=538 nm. After subtraction of blank values (wells containing medium but no cells), relative fluorescent values reflect a quantitative measurement of cell survival.
(§4) The number of cells in the wells containing functional derivatives was compared to the number of cells in the control wells. The concentration which inhibited cell growth by 50% was calculated and is referred to as the "IC50 ".

DU-145 = assay: growth inhibition of DU-145 prostate cancer cells (calcein fluorescence); assay type: cell-based; conditions: Homo sapiens, DU-145, 72 h; 3 days incubation; read-out: DU-145 C50
Protocol: as §1, §2, §3, §4

[1] = test system: androgen independent human prostate cancer cell lines Tsu-Pr1, DuPro-1, PC-3 and DU-145; assay: growth inhibition of prostate cancer-derived cell lines, overall (calcein fluorescence); assay type: cell-based; conditions: Table 3
Protocol: as §1, §2
(§5) Calcein AM (Molecular Probes, Eugene, Oreg.), an analog of the viable dye fluorescein diacetate, is taken up by cells and cleaved intracellularly to fluorescent salts that are retained by intact membranes of viable cells. This method thus provides a reliable and quantitative measurement of cell survival. Calcein AM was diluted 2× in Dulbeccos phosphate buffered saline (D-PBS) to 2× the final assay concentration (6 μM) and 100 μl was added to culture wells containing 100 μl of medium. The plates were then incubated for 1 hour at 37° C. Cells were then washed 4 times with D-PBS to remove excess calcein not taken up by cells. The plate was read using a Millipore plate reading fluorimeter (Cytofluor 2350) at emission=485 nm and excitation=538 nm. After subtraction of blank values (wells containing medium but no cells), relative fluorescent values reflect a quantitative measurement of cell survival. […]

Tsu-Pr1 = assay: growth inhibition of Tsu-Pr1 prostate cancer cells (calcein fluorescence); assay type: cell-based; conditions: Homo sapiens, TSU-Pr1, 72 h; 3 days incubation; read-out: Tsu-Pr1 IC50
Protocol: as §1, §2, §3, §4

PC-3 = assay: growth inhibition of PC-3 prostate cancer cells (calcein fluorescence); assay type: cell-based; conditions: Homo sapiens, PC-3, 72 h; 3 days incubation; read-out: PC-3 IC50
Protocol: as §1, §2, §5

trkA = biological target: T1, trkA (Rattus norvegicus, UniProt P35739); assay: inhibition of NGF-stimulated trk autophosphorylation (tyrosine phosphorylation) in PC12 cells, anti-phosphotyrosine Western blot; assay type: cell-based; conditions: 100 nM compound, NGF 50 ng/ml; note: key: +: Inhibited phosphorylation; -: Did not inhibit phosphorylation
T1 construct: are rat pheochromocytoma cells that bear trkA; host or cells: PC12 rat pheochromocytoma cells
Protocol: Candidate compounds for the inhibition of prostate cell proliferation were selected according to their ability to inhibit the tyrosine kinase activity associated with the trks.
PC12 cells (ATCC #CRL1721) are rat pheochromocytoma cells that bear trkA and differentiate into sympathetic neurons when treated with NGF. […] Cells were incubated at 37° C. in a humidified atmosphere of 10% CO2 and 90% air. […] The cells in each culture were disrupted and cell lysates were prepared by standard techniques known to those skilled in the art. Each lysate was incubated with anti-trk antibody whereby immune complexes were formed. […] The immune complexes were collected on Protein A-Sepharose beads, separated by SDS-polyacrylamide gel electrophoresis (SDS-PAGE), and transferred to polyvinylidene difluoride (PVDF) membranes (Millipore Corp., Bedford, Mass.), using techniques well known to those skilled in the art. The membranes were incubated with anti-phosphotyrosine antibody, which binds to the tyrosine phosphorylated trks, but not to the un-phosphorylated form of trks. Proteins bound to anti-phosphotyrosine antibody were visualized with enhanced chemiluminescence (ECL, Amersham), and are shown as dark "spots" in FIG. 1.
Measurement of the autophosphorylation of trk provides a good index of trk tyrosine kinase activity, and thereby of trk stimulation.
Inhibition was indicated by the absence of a spot migrating with the trk marker shown at the left side of the figure. Partial inhibition was indicated by a spot of reduced size.

[2] = body weight and weight of peripheral organs in sexually immature mice; conditions: for Body Weight: Table 4, TEPBS 31.5 ± 0.8; for Heart weight / Testes weight / Lung weight / Stomach weight / Kidney weight / Liver weight: Table 5; for Heart weight: TEPBS 171 ± 8.4; for Testes weight: TEPBS 202 ± 6; for Lung weight: TEPBS 230 ± 15.9; for Stomach weight: TEPBS 294 ± 22; for Kidney weight: TEPBS 576 ± 22; for Liver weight: TEPBS 1937 ± 75
Excerpt: (§6) The following animal model can be used to test the efficacy of a functional derivative for treatment of a proliferative prostate condition. Sexually immature male mice of 15-20 g each (Charles River Laboratories, Raleigh, N.C.) were used in the following in vivo study. The mice were allowed at least 3 days after purchase to acclimate before being used in any experiments.
(§7) Each test group contained 12 mice. […] At the end of the 21 day dosing period the mice were sacrificed and whole body blood, dorsal prostate, ventral prostate, coagulating glands, seminal vesicles, heart, liver, stomach, lung, kidneys and testes were collected separately and weighed.

prostate glands = assay: inhibition of prostate growth in sexually immature mice (weight of prostate glands); assay type: in vivo; conditions: for Dorsal Prostate weight / Ventral Prostate weight / Coagulating Glands weight / Seminal Vesicles weight: Table 4; for Dorsal Prostate weight: TEPBS 9.8 ± 1.6; for Ventral Prostate weight: TEPBS 11.3 ± 0.6; for Coagulating Glands weight: TEPBS 25.1 ± 1.6; for Seminal Vesicles weight: TEPBS 75.0 ± 5.0
Excerpt: as §6, §7

T1 sequence (P35739 33-799): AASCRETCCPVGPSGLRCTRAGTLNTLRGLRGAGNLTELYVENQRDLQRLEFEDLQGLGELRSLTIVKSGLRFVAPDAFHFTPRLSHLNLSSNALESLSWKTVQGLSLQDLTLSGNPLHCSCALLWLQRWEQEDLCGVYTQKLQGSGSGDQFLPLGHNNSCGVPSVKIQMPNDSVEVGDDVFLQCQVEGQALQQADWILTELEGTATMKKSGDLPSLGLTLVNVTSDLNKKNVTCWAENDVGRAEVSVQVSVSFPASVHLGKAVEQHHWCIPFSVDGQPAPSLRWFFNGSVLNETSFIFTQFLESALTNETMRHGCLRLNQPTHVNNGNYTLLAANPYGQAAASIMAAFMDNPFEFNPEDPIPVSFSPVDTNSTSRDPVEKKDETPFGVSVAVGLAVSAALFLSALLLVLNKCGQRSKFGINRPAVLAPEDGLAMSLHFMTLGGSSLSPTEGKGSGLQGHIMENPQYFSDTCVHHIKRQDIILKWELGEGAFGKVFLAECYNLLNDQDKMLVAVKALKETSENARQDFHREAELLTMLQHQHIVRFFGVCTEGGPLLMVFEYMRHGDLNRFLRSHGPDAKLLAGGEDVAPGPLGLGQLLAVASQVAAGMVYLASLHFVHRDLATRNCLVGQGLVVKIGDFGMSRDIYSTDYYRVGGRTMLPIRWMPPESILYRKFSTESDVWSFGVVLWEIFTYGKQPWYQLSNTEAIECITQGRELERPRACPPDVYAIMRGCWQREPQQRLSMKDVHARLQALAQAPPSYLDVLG

With `CC12OC(CC1(O)C(=O)NCCO)n1c3ccccc3c3c4c(c5c6ccccc6n2c5c31)CNC4=O` (stereo not shown) [Compound I-12] as the compound, how does the pIC50 (Du-Pro1) read?
Its pIC50 is 6.51.

And the pIC50 (DU-145)?
The pIC50 was 6.12.

And the “potency in inhibiting prostate cell line growth, in words” value [1]?
Its value is “most potent compounds in inhibiting growth in all four cell lines”.

What about the pIC50 (Tsu-Pr1) of the same compound?
Its pIC50 is 7.42.

What about the pIC50 (PC-3) of the same compound?
The pIC50 was 6.16.

And the “trk 100 nM (inhibition of phosphorylation)” value (trkA)?
Its value is “+”.

What about the “Body Weight” value ([2]; 1 mg/kg s.c. daily 21 days) of the same compound?
The value was 32.8 ± 0.4 g.

And the “Body Weight” value ([2]; 10 mg/kg s.c. daily 21 days)?
The value was 29.5 ± 1.0 g.

And the Heart weight ([2]; 1 mg/kg s.c. daily 21 days)?
The Heart weight was 179 ± 8.78 mg.

What about the Testes weight ([2]; 1 mg/kg s.c. daily 21 days) of the same compound?
The Testes weight was 191 ± 12 mg.

And the Lung weight ([2]; 1 mg/kg s.c. daily 21 days)?
The Lung weight was 244 ± 15.1 mg.

And the Stomach weight ([2]; 1 mg/kg s.c. daily 21 days)?
Its Stomach weight is 329 ± 28 mg.

What about the Kidney weight ([2]; 1 mg/kg s.c. daily 21 days) of the same compound?
The Kidney weight was 591 ± 16 mg.

And the Liver weight ([2]; 1 mg/kg s.c. daily 21 days)?
Its Liver weight is 2120 ± 54 mg.

What about the Heart weight ([2]; 10 mg/kg s.c. daily 21 days) of the same compound?
Its Heart weight is 152 ± 9.60 mg.

And the Testes weight ([2]; 10 mg/kg s.c. daily 21 days)?
The Testes weight was 187 ± 5 mg.

And the Lung weight ([2]; 10 mg/kg s.c. daily 21 days)?
Its Lung weight is 253 ± 20.9 mg.

And the Stomach weight ([2]; 10 mg/kg s.c. daily 21 days)?
Its Stomach weight is 270 ± 19 mg.

And the Kidney weight ([2]; 10 mg/kg s.c. daily 21 days)?
Its Kidney weight is 552 ± 29 mg.

What about the Liver weight ([2]; 10 mg/kg s.c. daily 21 days) of the same compound?
Its Liver weight is 1886 ± 84 mg.

What about the “weight of the ventral prostates and seminal vesicles, in words” value (prostate glands; 1 mg/kg) of the same compound?
The value was “reduced the weight of the ventral prostates and seminal vesicles”.

And the “weight of the dorsal prostate, in words” value (prostate glands; 1 mg/kg and 10 mg/kg)?
The value was “only reduced after treatment with 1 mg/kg”.

And the “weight of the ventral prostates and seminal vesicles, in words” value (prostate glands; 10 mg/kg)?
The value was “reduced the weight of the ventral prostates and seminal vesicles”.

What about the “Dorsal Prostate weight” value (prostate glands; 1 mg/kg s.c. daily 21 days) of the same compound?
The value was 4.7 ± 0.4 mg.

And the “Ventral Prostate weight” value (prostate glands; 1 mg/kg s.c. daily 21 days)?
Its value is 6.2 ± 0.4 mg.

And the “Coagulating Glands weight” value (prostate glands; 1 mg/kg s.c. daily 21 days)?
The value was 18.0 ± 2.4 mg.

And the “Seminal Vesicles weight” value (prostate glands; 1 mg/kg s.c. daily 21 days)?
The value was 54.3 ± 1.5 mg.

What about the “Dorsal Prostate weight” value (prostate glands; 10 mg/kg s.c. daily 21 days) of the same compound?
The value was 8.6 ± 1.1 mg.

And the “Ventral Prostate weight” value (prostate glands; 10 mg/kg s.c. daily 21 days)?
Its value is 8.4 ± 0.8 mg.

What about the “Coagulating Glands weight” value (prostate glands; 10 mg/kg s.c. daily 21 days) of the same compound?
Its value is 17.6 ± 1.0 mg.

And the “Seminal Vesicles weight” value (prostate glands; 10 mg/kg s.c. daily 21 days)?
The value was 55.3 ± 2.2 mg.
